Source: ChEMBL document CHEMBL1153130, “Discovery of dipiperidines as new antitubercular agents” (Bioorg Med Chem Lett, 2010)
In brackets after ≈: the same amount, converted by molar mass.

Assays:
HepG2 = assay: Cytotoxicity against human HepG2 cells after 72 hrs by MTS assay; assay type: cell-based; conditions: HepG2, 72 h
[1] = Selectivity index, IC50 for human HepG2 cells to MIC for Mycobacterium tuberculosis H37Rv ATCC 25618; assay type: functional
[2] = tested on: Mycobacterium tuberculosis; assay: Antitubercular activity against Mycobacterium tuberculosis H37Rv assessed as inhibition of cell wall biosynthesis after 10 to 14 days by bioluminescence assay relative to ethambutol; assay type: functional; design: scale not given: the % may be the effect or the level left
[3] = tested on: Mycobacterium tuberculosis; assay: Antitubercular activity against Mycobacterium tuberculosis H37Rv after 10 to 14 days by broth microdilution assay; assay type: functional
[4] = tested on: Mycobacterium tuberculosis; assay: Antitubercular activity against Mycobacterium tuberculosis H37Rv after 10 to 14 days by BACTEC assay; assay type: functional

| Structure (SMILES) | IC50 (HepG2) [µM] | Selectivity Index [1] | Activity [2] [%] | MIC [3] [µM] | MIC [4] [µM] |
| --- | --- | --- | --- | --- | --- |
| OC1CCN(CC2CCN(CC34CC5CC(CC(C5)C3)C4)CC2)CC1 | 56 | 8.96 | 59 | 6.25 (≈ 2.17 µg/mL) | 15.6 (≈ 5.41 µg/mL) |
| OC1CCN(CC2CCN(CC(c3ccccc3)c3ccccc3)CC2)CC1 | 30 | 3.85 | 125 | 7.8 (≈ 2.95 µg/mL) | 16 (≈ 6.06 µg/mL) |
| OC1CCN(CC2CCN(C3C4CC5CC(C4)CC3C5)CC2)CC1 (centres undefined) | 25 | 0.8 | 102 | 31.2 (≈ 10.4 µg/mL) | – |
